# From paper PMC10376326, “Novel Acylselenourea Derivatives: Dual Molecules with Anticancer and Radical Scavenging Activity” (Antioxidants, 2023)
# Read-outs that look alike come from different tables or passages of the source.
# Legend:
# [1] = set-up: method as in PMID 36671001; conditions: selenoester analogs, 0.03 mg/mL, 90 min; cited from earlier work
# [2] = test system: HT-29 (colon) cancer cell line; test: MTT cell viability assay, HT-29; format: cell-based; conditions: Homo sapiens, HT-29, 48 h, read-out: Cell growth %; for activity at 10 µM: HT-29, 10 µM; for activity at 50 µM: HT-29, 50 µM
# Method: (§1) Cell lines were purchased from the American Type Culture Collection (ATCC). Cell lines MDA-MB-231, HTB-54, DU-145, and BEAS-2B were cultured in RPMI 1640 medium (Gibco, Thermo Fisher Scientific, Gaithersburg, MD, USA) supplemented with 10% fetal bovine serum (FBS; Gibco), 100 units/mL penicillin, and […] streptomycin (Gibco). HT-29 cell line was grown in McCoy’s 5A (Gibco), 10% FBS, 100 units/mL penicillin, and 100 μg/mL streptomycin. Cells were maintained at 37 °C and 5% CO2. The culture medium was changed every three days.
# (§2) The cell viability of each compound was measured by MTT colorimetric assay. Each compound was dissolved in DMSO at a concentration of 0.01 M. Each compound was tested at two different concentrations (10 and 50 µM) in MDA-MB-231 (breast), HTB-54 (lung), DU-145 (prostate), and HT-29 (colon) human cancer cell lines. Serial dilutions were prepared with supplemented culture medium. […] IC50 and selectivity indexes (SI) were determined.
# (§3) Briefly, 1 × 10^4 tumor cells per well were grown in 96-well plates for 24 h. Then, these cells were incubated for 48 h with either DMSO (control) or a different concentration of each of the tested compounds. The cell viability was determined by adding 20 μL of MTT two hours and a half before the termination point. After this time, the culture medium was removed. The resulting formazan crystals were dissolved in 50 μL of DMSO, and the absorbance was measured at 570 nm. Results are expressed as % cell growth. The data were obtained from at least three independent experiments performed in quadruplicate.
# [3] = test system: MDA-MB-231 (breast) cancer cell line; test: MTT cell viability assay, MDA-MB-231; format: cell-based, human; conditions: Homo sapiens, MDA-MB-231, 48 h; for activity at 10 µM: read-out: Cell growth %, MDA-MB-231, 10 µM, 48 h, MTT; for activity at 50 µM: read-out: Cell growth %, MDA-MB-231, 50 µM, 48 h, MTT
# Method: as §1, §2, §3
# [4] = test system: HTB-54 (lung) cancer cell line; test: MTT cell viability assay, HTB-54; format: cell-based, human; conditions: for activity at 10 µM / activity at 50 µM / IC50: Homo sapiens, HTB-54, 48 h; for activity at 10 µM: read-out: Cell growth %, HTB-54, 10 µM, 48 h, MTT; for activity at 50 µM: read-out: Cell growth %, HTB-54, 50 µM, 48 h, MTT; for IC50: read-out: IC50 HTB-54, Lung, MTT, 48 h; for SI: IC50 (BEAS-2B)/IC50 (HTB-54)
# Method: as §1, §2, §3
# [5] = test system: MDA-MB-231, HT-29, HTB-54 and DU-145 cancer cell lines; test: MTT cell viability assay, statements over the panel of cancer cell lines; format: cell-based, human; conditions: 10 µM, over the four cancer cell lines
# Method: as §1, §2, §3
# [6] = DPPH radical scavenging assay; format: biochemical; conditions: for DPPH Inhibitory%: acylselenourea analogs
# Method: Different methods are available to quantify the antioxidant capacity of natural or novel molecules. Notable among these are the ABTS^•+ and DPPH^• methods, which measure the quenching efficiency in vitro for known concentrations of preformed radicals. In this work, the DPPH^• colorimetric assay was carried out. Measurements were recorded on a BioTeck PowerWave XS spectrophotometer (BioTeck Instruments, Winooski, VT, USA) and data were collected using KCJunior v.1.41. software (BioTeck Instruments, Winooski, VT, USA). Compounds with potent activity were selected to further determine their protective effect against ROS-induced cell death caused by H2O2.
# DPPH colorimetric assay was performed to determine the in vitro radical scavenging activity of the acylselenourea derivatives. DPPH assay was performed as described by Svinyarov. For each acylselenourea, a stock solution of 1 mg/mL in dimethyl sulfoxide (DMSO) was made, and these solutions were used to prepare the different concentrations employed in the assay. The compounds were tested at two different concentrations (0.003 and 0.03 mg/mL). Intermediate solutions were prepared in methanol and a volume of 100 µL of each was added to each well of the plate. Then, 100 µL of DPPH^• (previously prepared at a concentration of 0.04 mg/mL in methanol and preserved in the dark) was added to the previous methanolic acylselenourea solutions. The discoloration of the purple radical to the yellow reduced form was followed at 517 nm at different time points (0, 5, 15, 30, 60, 90, and 120 min). Ascorbic acid and trolox were used as positive controls. All measurements were carried out in triplicate. Results are expressed as the percentage of the radicals scavenged, calculated using the following formula: (1) % DPPH radical scavenging=Acontrol - Asample/Acontrol × 100 where Acontrol refers to the absorbance of the negative control and Asample refers to the absorbance of the tested compounds. Results are expressed as percentage of DPPH radical scavenging ± SD.
# [7] = test system: DU-145 (prostate) cancer cell line; test: MTT cell viability assay, DU-145; format: cell-based, human; conditions: Homo sapiens, DU-145, 48 h; for activity at 10 µM: read-out: Cell growth %, DU-145, 10 µM, 48 h, MTT; for activity at 50 µM: read-out: Cell growth %, DU-145, 50 µM, 48 h, MTT
# Method: as §1, §2, §3
# [8] = test system: non-malignant BEAS-2B lung cell line; test: MTT cell viability assay, BEAS-2B; format: cell-based; conditions: Homo sapiens, normal lung, 48 h
# Method: as §1, §2, §3
compound,measurement,setting,value
C=CC[Se]C(=O)c1ccco1 [C00001 2-furyl],DPPH Inhibitory%,[1],4.6 ± 7.5%
C=CC[Se]C(=O)C=Cc1ccccc1 [C00001 2-phenylvinyl],DPPH Inhibitory%,[1],3.6 ± 5.3%
C=CC[Se]C(=O)c1cccs1 [C00001 2-thiophenyl],DPPH Inhibitory%,[1],7.8 ± 10.4%
C=CC[Se]C(=O)c1cccnc1 [C00001 3-pyridyl],DPPH Inhibitory%,[1],6.3 ± 2.9%
"C=CC[Se]C(=O)c1ccc2c(c1)OCO2 [C00001 5-benzo[d][1, 3]dioxyl]",DPPH Inhibitory%,[1],0.0 ± 2.3%
C=CC[Se]C(=O)c1ccccc1 [C00001 phenyl],DPPH Inhibitory%,[1],9.0 ± 1.2%
C#CC[Se]C(=O)c1ccco1 [C00003 2-furyl],DPPH Inhibitory%,[1],5.4 ± 2.3%
C#CC[Se]C(=O)C=Cc1ccccc1 [C00003 2-phenylvinyl],DPPH Inhibitory%,[1],2.4 ± 2.0%
C#CC[Se]C(=O)c1cccs1 [C00003 2-thiophenyl],DPPH Inhibitory%,[1],0.0 ± 2.1%
C#CC[Se]C(=O)c1cccnc1 [C00003 3-pyridyl],DPPH Inhibitory%,[1],7.4 ± 0.7%
"C#CC[Se]C(=O)c1ccc2c(c1)OCO2 [C00003 5-benzo[d][1, 3]dioxyl]",DPPH Inhibitory%,[1],4.2 ± 8.0%
C#CC[Se]C(=O)c1ccccc1 [C00003 phenyl],DPPH Inhibitory%,[1],3.5 ± 0.9%
"C=CCNC(=[Se])NC(=O)c1ccco1 [Compound 1.II, N-(allylcarbamoselenoyl)furan-2-carboxamide]",activity at 10 µM,[2],95 ± 15.7%
same,activity at 50 µM,[2],16.6 ± 5.3%
same,activity at 10 µM,[3],80.4 ± 8.4%
same,activity at 50 µM,[3],14.5 ± 7.9%
same,activity at 10 µM,[4],54.9 ± 11.2%
same,activity at 50 µM,[4],11.1 ± 5.2%
same,cell growth %,[5],54.8–95.0%
same,inhibition,"[6]; 0.003 mg/mL, 0 min",1.7 ± 0.3%
same,inhibition,"[6]; 0.003 mg/mL, 5 min",5.4 ± 0.5%
same,inhibition,"[6]; 0.003 mg/mL, 15 min",8.8 ± 0.9%
same,inhibition,"[6]; 0.003 mg/mL, 30 min",12.1 ± 1.2%
same,inhibition,"[6]; 0.003 mg/mL, 60 min",16.5 ± 1.5%
same,inhibition,"[6]; 0.003 mg/mL, 90 min",19.5 ± 1.7%
same,inhibition,"[6]; 0.003 mg/mL, 120 min",21.1 ± 1.4%
same,time to reach the highest DPPH inhibition,[6]; 0.03 mg/mL,60 min
same,inhibition,"[6]; 0.03 mg/mL, 0 min",16 ± 1.9%
same,inhibition,"[6]; 0.03 mg/mL, 5 min",45.2 ± 5.1%
same,inhibition,"[6]; 0.03 mg/mL, 15 min",65.4 ± 4.1%
same,inhibition,"[6]; 0.03 mg/mL, 30 min",85.4 ± 4.9%
same,inhibition,"[6]; 0.03 mg/mL, 60 min",96.5 ± 0.6%
same,inhibition,"[6]; 0.03 mg/mL, 120 min",96.5 ± 0.5%
same,DPPH Inhibitory%,"[6]; 0.03 mg/mL, 90 min",96.6 ± 0.6%
same,activity at 10 µM,[7],81.5 ± 13.5%
same,activity at 50 µM,[7],10.6 ± 5.7%
"C#CCNC(=[Se])NC(=O)c1cccs1 [Compound 2.III, N-(prop-2-in-1-ylcarbamoselenoyl)thiophene-2-carboxamide]",activity at 10 µM,[2],43.4 ± 4.2%
same,activity at 50 µM,[2],20.6 ± 4%
same,activity at 10 µM,[3],27.4 ± 5.4%
same,activity at 50 µM,[3],9.48 ± 7.8%
same,activity at 10 µM,[4],76.8 ± 6.8%
same,activity at 50 µM,[4],44.7 ± 3.5%
same,IC50,[4],11.6 ± 1.6 µM
same,SI,[4],2.3
same,inhibition,"[6]; 0.003 mg/mL, 0 min",2.4 ± 0.6%
same,inhibition,"[6]; 0.003 mg/mL, 5 min",4.3 ± 0.4%
same,inhibition,"[6]; 0.003 mg/mL, 15 min",5.4 ± 0.3%
same,inhibition,"[6]; 0.003 mg/mL, 30 min",6.5 ± 0.5%
same,inhibition,"[6]; 0.003 mg/mL, 60 min",7.1 ± 0.5%
same,inhibition,"[6]; 0.003 mg/mL, 90 min",7.3 ± 0.6%
same,inhibition,"[6]; 0.003 mg/mL, 120 min",7.3 ± 0.6%
same,inhibition,"[6]; 0.03 mg/mL, 0 min",14.5 ± 2.3%
same,inhibition,"[6]; 0.03 mg/mL, 5 min",12.8 ± 3%
same,inhibition,"[6]; 0.03 mg/mL, 15 min",19.8 ± 2.8%
same,inhibition,"[6]; 0.03 mg/mL, 30 min",24.8 ± 2.6%
same,inhibition,"[6]; 0.03 mg/mL, 60 min",30.2 ± 2.9%
same,inhibition,"[6]; 0.03 mg/mL, 120 min",34.4 ± 2.9%
same,DPPH Inhibitory%,"[6]; 0.03 mg/mL, 90 min",33.0 ± 3.1%
same,IC50,[8],26.6 ± 4 µM
same,activity at 10 µM,[7],12.8 ± 2.8%
same,activity at 50 µM,[7],14.3 ± 6.7%
"C#CCNC(=[Se])NC(=O)c1ccc2c(c1)OCO2 [Compound 8.III, N-(prop-2-in-1-ylcarbamoselenoyl)benzo[d][1,3]dioxole-5-carboxamide]",activity at 10 µM,[2],40.3 ± 8.3%
same,activity at 50 µM,[2],18.1 ± 5.3%
same,activity at 10 µM,[3],61.9 ± 13.5%
same,activity at 50 µM,[3],19.1 ± 9.6%
same,activity at 10 µM,[4],34.5 ± 9.1%
same,activity at 50 µM,[4],31.6 ± 6.1%
same,IC50,[4],21.7 ± 4.1 µM
same,SI,[4],>4.6
same,inhibition,"[6]; 0.003 mg/mL, 0 min",1.1 ± 2.3%
same,inhibition,"[6]; 0.003 mg/mL, 5 min",2.4 ± 2.2%
same,inhibition,"[6]; 0.003 mg/mL, 15 min",4.4 ± 2%
same,inhibition,"[6]; 0.003 mg/mL, 30 min",6.2 ± 1.9%
same,inhibition,"[6]; 0.003 mg/mL, 60 min",8.3 ± 1.8%
same,inhibition,"[6]; 0.003 mg/mL, 90 min",9.2 ± 1.8%
same,inhibition,"[6]; 0.003 mg/mL, 120 min",9.7 ± 1.8%
same,inhibition,"[6]; 0.03 mg/mL, 0 min",6.4 ± 2.5%
same,inhibition,"[6]; 0.03 mg/mL, 5 min",17.9 ± 0.9%
same,inhibition,"[6]; 0.03 mg/mL, 15 min",32.8 ± 0.9%
same,inhibition,"[6]; 0.03 mg/mL, 30 min",45.2 ± 2%
same,inhibition,"[6]; 0.03 mg/mL, 60 min",59.7 ± 3.8%
same,inhibition,"[6]; 0.03 mg/mL, 120 min",72.5 ± 8.1%
same,DPPH Inhibitory%,"[6]; 0.03 mg/mL, 90 min",62.4 ± 3.1%
same,IC50,[8],> 100 µM
same,activity at 10 µM,[7],63 ± 4.8%
same,activity at 50 µM,[7],12.3 ± 7.8%
"C=CCNC(=O)c1cccc(C(=O)NC(=[Se])NCC=C)c1 [Compound 11.II, N^1-allyl-N^3-(allylcarbamoselenoyl)isophthalamide]",activity at 10 µM,[2],88.1 ± 4.8%
same,activity at 50 µM,[2],30.8 ± 4%
same,activity at 10 µM,[3],77.1 ± 10.1%
same,activity at 50 µM,[3],14.7 ± 7.8%
same,activity at 10 µM,[4],48.3 ± 6.9%
same,activity at 50 µM,[4],5.94 ± 4.7%
same,inhibition,"[6]; 0.003 mg/mL, 0 min",0%
same,inhibition,"[6]; 0.003 mg/mL, 5 min",2.5 ± 1.4%
same,inhibition,"[6]; 0.003 mg/mL, 15 min",5.8 ± 1.2%
same,inhibition,"[6]; 0.003 mg/mL, 30 min",8.6 ± 0.9%
same,inhibition,"[6]; 0.003 mg/mL, 60 min",11.6 ± 1%
same,inhibition,"[6]; 0.003 mg/mL, 90 min",12.8 ± 0.8%
same,inhibition,"[6]; 0.003 mg/mL, 120 min",13.5 ± 0.7%
same,inhibition,"[6]; 0.03 mg/mL, 0 min",11 ± 3%
same,inhibition,"[6]; 0.03 mg/mL, 5 min",38.5 ± 0.3%
same,inhibition,"[6]; 0.03 mg/mL, 15 min",56.8 ± 0.6%
same,inhibition,"[6]; 0.03 mg/mL, 30 min",70.1 ± 1%
same,inhibition,"[6]; 0.03 mg/mL, 60 min",83 ± 1%
same,inhibition,"[6]; 0.03 mg/mL, 90 min",89.6 ± 1.2%
same,inhibition,"[6]; 0.03 mg/mL, 120 min",94.3 ± 1.2%
same,activity at 10 µM,[7],93.8 ± 8%
same,activity at 50 µM,[7],22 ± 5.8%
